This passage reports inhibition and melting point results from patent US8916555B2, “3,5-diaminopyrazole kinase inhibitors” (Axikin Pharmaceuticals, Inc., priority 2012, dated 2014).

Series [1] concerns the target T1, kinase domain protein of RC kinase (Homo sapiens, UniProt Q56UN5).
T1 sequence (Q56UN5 1061-1324 limits assumed): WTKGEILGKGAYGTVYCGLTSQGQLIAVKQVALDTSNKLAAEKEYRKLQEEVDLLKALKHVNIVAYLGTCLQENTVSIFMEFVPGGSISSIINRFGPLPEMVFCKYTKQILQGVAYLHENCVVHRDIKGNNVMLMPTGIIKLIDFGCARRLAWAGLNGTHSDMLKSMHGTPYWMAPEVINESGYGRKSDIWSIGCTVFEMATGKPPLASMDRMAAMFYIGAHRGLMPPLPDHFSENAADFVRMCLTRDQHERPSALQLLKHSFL
The series can be described thus: Enzymatic assay for kinase inhibitory activity (Crebtide substrate, LANCE readout), kinase domain protein. It counts as biochemical. Particulars: test compound 1 μM, ATP 1 μM, Crebtide 50 nM. Summed up: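 Kinase domain (1 mg/mL final) with 50 nM Crebtide and 1 μM ATP in MAPK buffer (50 mM HEPES, 10 mM MgCl2, 2 mM DTT, 0.01% Tween 20), 45 min RT. Compound at 1 μM or 1×IC50, duplicate. EDTA/anti-Crebtide stop, 45 min development, LANCE 665/615 nm; % inhibition at 1 μM binned A–D.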

Some results are limits rather than exact numbers.

The compound `NC(=O)c1c(Nc2cccnc2)n[nH]c1NCc1ccccc1` [Compound D155, 5-(benzylamino)-3-(pyridin-3-ylamino)-1H-pyrazole-4-carboxamide] showed a melting point of 228 to 231 °C. In series [1], this compound yielded an inhibition at 1 µM of 5 to 20%.

Turning to `COc1ccccc1CNc1[nH]nc(Nc2cccc(Cl)c2)c1C(N)=O` [Compound D157, 3-((3-chlorophenyl)amino)-5-((2-methoxybenzyl)amino)-1H-pyrazole-4-carboxamide], the melting point was 225 to 227 °C. In series [1], this compound registered an inhibition at 1 µM of 5 to 20%.

For `NC(=O)c1c(Nc2ccc(Cl)c(Cl)c2)n[nH]c1NCc1ccc(O)cc1` [Compound D158, 3-((3,4-dichlorophenyl)amino)-5-((4-hydroxybenzyl)amino)-1H-pyrazole-4-carboxamide], the melting point lay within 203 to 209 °C. The compound further returned an inhibition at 1 µM in series [1] of at least 50%.

As for `NC(=O)c1c(Nc2ccc(F)c(Cl)c2)n[nH]c1NCc1ccc(O)cc1` [Compound D159, 3-((3-chloro-4-fluorophenyl)amino)-5-((4-hydroxybenzyl)amino)-1H-pyrazole-4-carboxamide], the melting point lay within 178 to 183 °C. The inhibition at 1 µM in series [1] is at least 50%.

In the case of `NC(=O)c1c(Nc2ccc(Br)c(Cl)c2)n[nH]c1NCc1ccc(O)cc1` [Compound D160, 3-((4-bromo-3-chlorophenyl)amino)-5-((4-hydroxybenzyl)amino)-1H-pyrazole-4-carboxamide], the melting point was 199 to 204 °C. In series [1], this compound gave an inhibition at 1 µM of 20 to 50%.

Compound `NC(=O)c1c(Nc2ccc(-c3ccccc3)cc2)n[nH]c1NCc1ccc(O)cc1` [Compound D161, 3-([1,1′-biphenyl]-4-ylamino)-5-((4-hydroxybenzyl)amino)-1H-pyrazole-4-carboxamide] showed a melting point of 206 to 210 °C. Further, in series [1], the inhibition at 1 µM was at least 50%.

Turning to `COc1ccc(Nc2n[nH]c(NCc3ccc(O)cc3)c2C(N)=O)cc1` [Compound D162, 5-((4-hydroxybenzyl)amino)-3-((4-methoxyphenyl)amino)-1H-pyrazole-4-carboxamide], the melting point was in the range of 176 to 180 °C. This compound also came in with an inhibition at 1 µM in series [1] of at least 50%.

For `NC(=O)c1c(Nc2ccc(F)cc2)n[nH]c1NCc1ccc(O)cc1` [Compound D163], the melting point is 204 to 207 °C. The same compound gave an inhibition at 1 µM in series [1] of at least 50%.

As for `CC(C)(C)c1ccc(Nc2n[nH]c(NCc3ccc(O)cc3)c2C(N)=O)cc1` [Compound D164, 3-((4-(tert-butyl)phenyl)amino)-5-((4-hydroxybenzyl)amino)-1H-pyrazole-4-carboxamide], the melting point lay in the range of 218 to 222 °C. Besides, the inhibition at 1 µM in series [1] was at least 50%.

Turning to `NC(=O)c1c(Nc2ccc(C(=O)O)cc2)n[nH]c1NCc1ccc(O)cc1` [Compound D165, 4-((4-carbamoyl-5-((4-hydroxybenzyl)amino)-1H-pyrazol-3-yl)amino)benzoic acid], the melting point was in the range of 285 to 290 °C. The compound further had an inhibition at 1 µM in series [1] of at least 50%.

A word on the inhibition: it is the relative decrease from the control value, in per cent. As a reminder, the melting point is the temperature of the solid-liquid transition.
